From US20170275287A1, “NOVEL N2, N4, N7, 6-TETRASUBSTITUTED PTERIDINE-2,4,7-TRIAMINE AND 2, 4, 6, 7-TETRASUBSTITUTED PTERIDINE COMPOUNDS AND METHODS OF SYNTHESIS AND USE THEREOF” (Janus Biotherapeutics, Inc., priority 2014, published 2017)
Where two headings read alike, the source gives them in different places.

How the values were obtained:
[1] = Pharmacokinetic study in rats, IV and PO, whole blood (Charles River); assay type: in vivo, Sprague-Dawley rats
Description: A pharmacokinetic study was performed by Charles River Wilmington Mass., in rats and the doses where 2 mg/kg IV and 10 mg/kg PO and whole blood levels were measured for 72 h. The calculated pharmacokinetic parameters for 24 h are given below in Table 8.
Six (6) male Sprague-Dawley rats were selected from the Testing Facility's rodent colony. The animals were enrolled in the study based on acceptable health as determined by a Testing Facility veterinarian and based on patency of femoral and jugular vein catheters. Fasting was performed for at least 16 hours prior to dosing. Food was also withheld until after the 4 hour time point collection. The animals were placed into 2 groups of 3 animals per group. Each animal in Group 1 received prepared JB6121 by intravenous dose administration at a target dose level of 2 mg/kg and at a dose volume of 1 mL/kg. Immediately following intravenous dosing, the inter-dwelling catheter was flushed with 0.5 mL of saline. Each animal in Group 2 received prepared JB6121 by oral gavage dose administration at a target dose level of 10 mg/kg and at a dose volume of 10 mL/kg.
Whole blood samples (0.300 mL; K2EDTA anticoagulant) were collected from each animal through a jugular vein catheter. Whole blood samples were collected from all animals at 30 minutes and at 1, 2, 4, 6, 12, 24, 48, and 72 hours after dose administration.
Whole blood samples were transferred to the Charle River Bioanalytical Sciences Laboratory, Wilmington Mass., for analysis. Pharmacokinetic parameters were estimated using Watson pharmacokinetic software (Version No. 7.2) using a non-compartmental approach consistent with the IV or PO route of administration.

[2] = A-B permeability, CaCo-2 cells (CEREP); assay type: in vitro ADME; conditions: human, pH 6.5/7.4
Description: (§1) Preliminary screening measures were conducted by CEREP. All values fall within acceptable limits (Table 5). Solubility assays where performed by CEREP, Seattle, Wash., according to Lipinski, C. A. et al., 1997, Adv. Drug Del. Rev., 46:3-26. Protein binding assays where performed by CEREP, Seattle, Wash., according to Banker, M. J. et al., 2003, J. Pharm. Sci., 92:967-974. Permeability assays where performed by CEREP, Seattle, Wash. according to Hildalgo, I. J., 1998, Gastroenterology, 96:736-749. Metabolic stability assays where performed by CEREP, Seattle, Wash., according to Obach, R. S. et al., 1997, J. Pharmacol. Exp. Ther., 283:46-58. P-glycoprotein inhibition assays where performed by CEREP, Seattle, Wash., according to Polli, J. W. et al., 2001, J. Pharm. Exp. Ther., 299:620-628. Cell viability assays where performed by CEREP, Seattle, Wash., according to Mosmann, T., 1983, J. Immunol. Met. 65:55-62. hERG automated patch clamp assays where performed by CEREP, Seattle, Wash., according to Mathes, C., 2006, Expert Opin. Ther. Targets, 10:230-241.

hERG = molecular target: T1, hERG (Homo sapiens, UniProt Q12809); test: hERG automated patch clamp (CEREP); assay type: cell-based
T1 construct: host or cells: CHO (Chinese hamster ovary)
Description: as §1

[3] = male, Sprague-Dawley, whole blood, Rat, PO 10.0 mg/kg

T1 sequence (Q12809 whole entry): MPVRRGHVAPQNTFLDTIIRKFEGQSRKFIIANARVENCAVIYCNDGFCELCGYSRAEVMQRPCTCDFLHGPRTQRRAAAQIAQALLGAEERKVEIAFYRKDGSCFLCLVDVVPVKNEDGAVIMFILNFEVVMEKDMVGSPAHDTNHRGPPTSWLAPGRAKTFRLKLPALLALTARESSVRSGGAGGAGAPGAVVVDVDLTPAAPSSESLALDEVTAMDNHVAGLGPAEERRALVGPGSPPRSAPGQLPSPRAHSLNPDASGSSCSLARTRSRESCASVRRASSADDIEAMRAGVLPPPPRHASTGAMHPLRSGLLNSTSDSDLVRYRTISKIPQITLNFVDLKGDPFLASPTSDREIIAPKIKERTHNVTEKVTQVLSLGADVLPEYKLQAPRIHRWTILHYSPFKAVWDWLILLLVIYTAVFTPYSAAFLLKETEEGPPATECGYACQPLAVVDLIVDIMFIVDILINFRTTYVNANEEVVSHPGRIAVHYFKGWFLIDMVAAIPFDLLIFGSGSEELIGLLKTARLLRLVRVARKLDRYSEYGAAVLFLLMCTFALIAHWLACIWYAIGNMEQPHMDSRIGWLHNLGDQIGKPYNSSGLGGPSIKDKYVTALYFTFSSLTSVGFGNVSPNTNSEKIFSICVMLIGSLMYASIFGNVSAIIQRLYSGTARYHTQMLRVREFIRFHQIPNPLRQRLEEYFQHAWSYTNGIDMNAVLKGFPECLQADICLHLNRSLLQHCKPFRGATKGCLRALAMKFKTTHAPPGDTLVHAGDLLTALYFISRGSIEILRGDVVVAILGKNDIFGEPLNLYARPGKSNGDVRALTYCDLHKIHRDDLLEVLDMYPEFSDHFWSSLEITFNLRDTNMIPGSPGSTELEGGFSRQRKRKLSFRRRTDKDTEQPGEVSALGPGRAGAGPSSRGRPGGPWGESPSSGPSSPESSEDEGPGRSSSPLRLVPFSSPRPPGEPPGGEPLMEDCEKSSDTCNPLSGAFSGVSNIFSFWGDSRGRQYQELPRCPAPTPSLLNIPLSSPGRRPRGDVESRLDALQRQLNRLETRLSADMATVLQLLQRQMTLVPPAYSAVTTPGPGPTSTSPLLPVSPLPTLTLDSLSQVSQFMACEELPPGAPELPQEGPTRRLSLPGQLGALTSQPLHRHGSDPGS

CN1CCN(c2nc(NCCN3CCOCC3)c3nc(Cl)c(NCCN4CCOCC4)nc3n2)CC1 [JB6121, 6-chloro-2-(4-methylpiperazin-1-yl)-N^4,N^7-bis(2-morpholinoethyl)pteridine-4,7-diamine]
AUC ([1]; male, Sprague-Dawley, rat, whole blood, iv, 2 mg/kg, Rat, IV 2.0 mg/kg, read-out: AUC): 2040 ng·h/mL
AUC ([1]; male, Sprague-Dawley, rat, whole blood, iv, 2 mg/kg, Rat, IV 2.0 mg/kg, read-out: AUC Extrap): 2230 ng·h/mL
bioavailability ([1]; male, Sprague-Dawley, rat, whole blood, oral, 10 mg/kg, summary statement, read-out: in vivo bioavailability): > 20%
AUC ([1]; male, Sprague-Dawley, rat, whole blood, po, 10 mg/kg, Rat, PO 10.0 mg/kg, read-out: AUC): 2100 ng·h/mL
AUC ([1]; male, Sprague-Dawley, rat, whole blood, po, 10 mg/kg, Rat, PO 10.0 mg/kg, read-out: AUC Extrap): 2310 ng·h/mL
clearance ([1]; male, Sprague-Dawley, whole blood, Rat, IV 2.0 mg/kg): 16.4 mL/min/kg
Vd ([1]; male, Sprague-Dawley, whole blood, Rat, IV 2.0 mg/kg, read-out: Vdss): 21.6 L/kg
Cmax [1, 3]: 149 ng/mL
Tmax [1, 3]: 3.33 h
bioavailability ([1]; male, Sprague-Dawley, whole blood, Rat, PO 10.0 mg/kg, read-out: Bioavailability): 20.6%
half-life ([1]; male, Sprague-Dawley, Rat, IV 2.0 mg/kg, whole blood, 24 h, read-out: T½ (converted)): 9.71 h
clinically relevant abnormalities during dosing and sampling ([1]; rats, 2 mg/kg IV and 10 mg/kg PO): no abnormalities were noted
Papp A→B [2]: 1.2 ×10⁻⁶ cm/s
inhibition at 10 µM (hERG): 11%
